Laboratory results reported in patent publication US9422285B2, “Substituted pyrazolo[1,5-A]-pyridine-3-carboxamides and use thereof” (Bayer Pharma Aktiengesellschaft, priority 2014, dated 2016).
Counter-ions that a name gives are not always drawn.

molecular target: T1, recombinant guanylate cyclase reporter cell line (Rattus norvegicus, UniProt P19686+P20595); test: Effect on a recombinant guanylate cyclase reporter cell line (B-2); assay type: cell-based; conditions: in some cases mean values for individual determinations
T1 construct: expressed in transfected cells
T1 sequence (P19686 1-690): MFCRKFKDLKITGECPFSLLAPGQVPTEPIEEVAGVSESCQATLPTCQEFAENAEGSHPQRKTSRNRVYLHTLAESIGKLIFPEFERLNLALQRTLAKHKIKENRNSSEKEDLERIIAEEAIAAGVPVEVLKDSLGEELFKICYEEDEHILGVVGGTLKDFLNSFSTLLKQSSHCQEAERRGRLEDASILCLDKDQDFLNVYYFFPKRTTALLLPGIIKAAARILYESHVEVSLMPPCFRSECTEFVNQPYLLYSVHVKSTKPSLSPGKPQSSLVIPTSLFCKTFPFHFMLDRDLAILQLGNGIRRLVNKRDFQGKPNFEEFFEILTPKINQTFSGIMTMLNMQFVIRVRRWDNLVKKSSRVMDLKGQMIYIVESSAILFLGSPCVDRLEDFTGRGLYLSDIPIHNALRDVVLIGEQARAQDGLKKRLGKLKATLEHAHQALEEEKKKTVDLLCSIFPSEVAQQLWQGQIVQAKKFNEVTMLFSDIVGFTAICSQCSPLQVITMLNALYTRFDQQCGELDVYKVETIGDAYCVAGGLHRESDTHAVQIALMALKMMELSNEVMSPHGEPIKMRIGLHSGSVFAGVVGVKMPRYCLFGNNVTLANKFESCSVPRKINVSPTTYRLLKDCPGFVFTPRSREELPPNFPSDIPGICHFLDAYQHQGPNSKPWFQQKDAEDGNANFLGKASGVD
T1 sequence (P20595 1-619): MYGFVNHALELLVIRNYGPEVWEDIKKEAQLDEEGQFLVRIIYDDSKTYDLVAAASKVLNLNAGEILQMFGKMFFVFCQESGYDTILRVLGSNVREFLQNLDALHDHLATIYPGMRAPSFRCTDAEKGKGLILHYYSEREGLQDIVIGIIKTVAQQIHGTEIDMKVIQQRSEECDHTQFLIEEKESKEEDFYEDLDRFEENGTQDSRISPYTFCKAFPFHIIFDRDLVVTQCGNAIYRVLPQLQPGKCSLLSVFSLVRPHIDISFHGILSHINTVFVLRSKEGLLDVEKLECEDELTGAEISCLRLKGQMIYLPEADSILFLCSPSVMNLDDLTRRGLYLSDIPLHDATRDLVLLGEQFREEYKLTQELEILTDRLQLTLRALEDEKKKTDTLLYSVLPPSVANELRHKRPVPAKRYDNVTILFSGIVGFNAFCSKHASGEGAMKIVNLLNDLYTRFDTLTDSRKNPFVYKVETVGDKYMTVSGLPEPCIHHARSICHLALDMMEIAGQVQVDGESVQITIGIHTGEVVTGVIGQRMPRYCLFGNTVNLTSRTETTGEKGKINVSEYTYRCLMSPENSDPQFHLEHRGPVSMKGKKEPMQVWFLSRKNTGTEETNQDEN
Procedure: B-2. Effect on a Recombinant Guanylate Cyclase Reporter Cell Line
The cellular effect of the inventive compounds is determined using a recombinant guanylate cyclase reporter cell line, as described in F. Wunder et al., Anal. Biochem. 339, 104-112 (2005).
Representative MEC values (MEC=minimum effective concentration) for the inventive compounds are shown in the table below (in some cases as mean values for individual determinations): […]

Row | Structure (SMILES) | MEC (minimum effective concentration)
1 | Cc1cc(OCc2c(F)cccc2F)n2nc(C)c(C(=O)NCC(N)C#N)c2c1 (racemic) [Example 59, rac-N-(2-Amino-2-cyanoethyl)-7-[(2,6-difluorobenzyl)oxy]-2,5-dimethylpyrazolo[1,5-a]pyridine-3-carboxamide] | 3.0 µM
2 | Cc1cc(OCc2c(F)cccc2F)n2nc(C)c(C(=O)NCC(C)(N)CCF)c2c1 (single isomer, unassigned) [Example 50, ent-N-(2-Amino-4-fluoro-2-methylbutyl)-7-[(2,6-difluorobenzyl)oxy]-2,5-dimethylpyrazolo[1,5-a]pyridine-3-carboxamide] | 0.3 µM
3 | Cc1cc(OCc2c(F)ccc(F)c2F)n2nc(C)c(C(=O)Nc3cnn(CCO)c3)c2c1 [Example 33, N-[1-(2-Hydroxyethyl)-1H-pyrazol-4-yl] -2,5-dimethyl-7-[(2,3,6-trifluorobenzyl)oxy]pyrazolo[1,5-a]pyridine-3-carboxamide] | 3.0 µM
4 | Cc1cc(OCc2c(F)ccc(F)c2F)n2nc(C)c(C(=O)NCC3(O)CC3)c2c1 [Example 25, N-[(1-Hydroxycyclopropyl)methyl]-2,5-dimethyl-7-[(2,3,6-trifluorobenzyl)oxy]pyrazolo[1,5-a]pyridine-3-carboxamide] | 0.3 µM
5 | Cc1cc(OCc2c(F)ccc(F)c2F)n2nc(C)c(C(=O)N[C@@H](CO)C(=O)Nc3ccc4ccccc4c3)c2c1 [Example 7, N-[(2S)-3-Hydroxy-1-(2-naphthylamino)-1-oxopropan-2-yl]-2,5-dimethyl-7-[(2,3,6-trifluorobenzyl)oxy]pyrazolo[1,5-a]pyridine-3-carboxamide] | 1.0 µM
6 | Cc1cc(OCc2c(F)cccc2F)n2nc(C)c(C(=O)NCC(C)(N)CCCF)c2c1 (single isomer, unassigned) [Example 44, ent-N-(2-Amino-5-fluoro-2-methylpentyl)-7-[(2,6-difluorobenzyl)oxy]-2,5-dimethylpyrazolo[1,5-a]pyridine-3-carboxamide] | 0.3 µM
7 | Cc1cc(OCc2c(F)ccc(F)c2F)n2nc(C)c(C(=O)NCCN(C)C)c2c1 [Example 12, N-[2-(Dimethylamino)ethyl]-2,5-dimethyl-7-[(2,3,6-trifluorobenzyl)oxy]pyrazolo[1,5-a]pyridine-3-carboxamide] | 3.0 µM
8 | Cc1cc(OCc2c(F)cccc2F)n2nc(C)c(C(=O)NCC(C)(N)CCCF)c2c1 (single isomer, unassigned) [Example 45, ent-N-(2-Amino-5-fluoro-2-methylpentyl)-7-[(2,6-difluorobenzyl)oxy]-2,5-dimethylpyrazolo[1,5-a]pyridine-3-carboxamide] | 0.3 µM
9 | Cc1cc(OCc2c(F)ccc(F)c2F)n2nc(C)c(C(=O)NC3c4ccccc4CC3O)c2c1 (centres unmarked) [Example 6] | 1.0 µM
10 | Cc1cc(OCc2c(F)cccc2F)n2nc(C)c(C(=O)NNc3ccc(F)cc3)c2c1 [Example 66, 7-[(2,6-Difluorobenzyl)oxy]-N′-(4-fluorophenyl)-2,5-dimethylpyrazolo[1,5-a]pyridine-3-carbohydrazide trifluoroacetate] | 0.3 µM
11 | Cc1cc(OCc2c(F)cccc2F)n2nc(C)c(C(=O)Nc3ccnc4ccc(F)cc34)c2c1 [Example 80, 7-[(2,6-Difluorobenzyl)oxy]-N-(6-fluoroquinolin-4-yl)-2,5-dimethylpyrazolo[1,5-a]pyridine-3-carboxamide trifluoroacetate] | 0.03 µM
12 | Cc1cc(OCc2c(F)cccc2F)n2nc(C)c(C(=O)N[C@@H]3COC[C@@H]3N)c2c1 (relative stereo) [Example 69, rel-N-[(3R,4S)-4-Aminotetrahydrofuran-3-yl]-7-[(2,6-difluorobenzyl)oxy]-2,5-dimethylpyrazolo[1,5-a]pyridine-3-carboxamide] | 10 µM
13 | Cc1cc(OCc2c(F)ccc(F)c2F)n2nc(C)c(C(=O)NC3CC3c3ccccc3)c2c1 (racemic) [Example 10, rac-2,5-Dimethyl-N-(2-phenylcyclopropyl)-7-[(2,3,6-trifluorobenzyl)oxy]pyrazolo[1,5-a]pyridine-3-carboxamide] | 1.0 µM
14 | Cc1cc(OCc2c(F)ccc(F)c2F)n2nc(C)c(C(=O)N[C@H]3CCOC3=O)c2c1 [Example 27, 2,5-Dimethyl-N-[(3S)-2-oxotetrahydrofuran-3-yl]-7-[(2,3,6-trifluorobenzyl)oxy]pyrazolo[1,5-a]pyridine-3-carboxamide] | 0.3 µM

Results, then the compound that gave them:

Row | MEC (minimum effective concentration) | Structure (SMILES)
15 | 3.0 µM | CCCC(C)(N)CNC(=O)c1c(C)nn2c(OCc3c(F)cccc3F)cc(C3CC3)cc12 (racemic) [Example 167, rac-N-(2-Amino-2-methylpentyl)-5-cyclopropyl-7-[(2,6-difluorobenzyl)oxy]-2-methylpyrazolo[1,5-a]pyridine-3-carboxamide]
16 | 10 µM | Cc1cc(OCc2c(F)cccc2F)n2nc(C)c(C(=O)NCC3CCC(=O)N3)c2c1 (racemic) [Example 95, rac-7-[(2,6-Difluorobenzyl)oxy]-2,5-dimethyl-N-[(5-oxopyrrolidin-2-yl)methyl]pyrazolo[1,5-a]pyridine-3-carboxamide]
17 | 1.0 µM | Cc1cc(OCc2c(F)cccc2F)n2nc(C)c(C(=O)NC(CN)c3cccc(Br)c3)c2c1 (racemic) [Example 126, rac-N-[2-Amino-1-(3-bromphenyl)ethyl]-7-[(2,6-difluorobenzyl)oxy]-2,5-dimethylpyrazolo[1,5-a]pyridine-3-carboxamide]
18 | 1.0 µM | Cc1cc(OCc2c(F)cccc2F)n2nc(C)c(C(=O)N[C@H]3CCNC3=O)c2c1 [Example 149, 7-[(2,6-Difluorobenzyl)oxy]-2,5-dimethyl-N-[(3S)-2-oxopyrrolidin-3-yl]pyrazolo[1,5-a]pyridine-3-carboxamide]
19 | 1.0 µM | Cc1cc(OCc2c(F)cccc2F)n2nc(C)c(C(=O)N[C@@H]3CNC[C@@H]3F)c2c1 (relative stereo) [Example 128, rel-7-[(2,6-Difluorobenzyl)oxy]-N-[(3R,4S)-4-fluoropyrrolidin-3-yl]-2,5-dimethylpyrazolo[1,5-a]pyridine-3-carboxamide]
20 | 10 µM | Cc1cc(OCc2c(F)cccc2F)n2nc(C)c(C(=O)NC3CC[C@@H]4NCC[C@H]34)c2c1 (relative stereo) [Example 122, rel-7-[(2,6-Difluorobenzyl)oxy]-2,5-dimethyl-N-[(3aR,6aR)-octahydrocyclopenta[b]pyrrol-4-yl]pyrazolo[1,5-a]pyridine-3-carboxamide]
21 | 1.0 µM | Cc1cc(OCc2c(F)cccc2F)n2nc(C)c(C(=O)NNC(=O)CN3CCCCC3)c2c1 [Example 174, 7-[(2,6-Difluorobenzyl)oxy]-2,5-dimethyl-N′-(piperidin-1-ylacetyl)pyrazolo[1,5-a]pyridine-3-carbohydrazide]
22 | 1.0 µM | COc1ccc2c(c1)C(NC(=O)c1c(C)nn3c(OCc4c(F)cccc4F)cc(C)cc13)CCC2 (racemic) [Example 146, rac-7-[(2,6-Difluorobenzyl)oxy]-N-(7-methoxy-1,2,3,4-tetrahydronaphthalen-1-yl)-2,5-dimethylpyrazolo[1,5-a]pyridine-3-carboxamide]
23 | 0.3 µM | Cc1cc(OCc2c(F)cccc2F)n2nc(C)c(C(=O)NC3CCOc4c(C#N)cccc43)c2c1 (racemic) [Example 140, rac-N-(8-Cyano-3,4-dihydro-2H-chromen-4-yl)-7-[(2,6-difluorobenzyl)oxy]-2,5-dimethylpyrazolo[1,5-a]pyridine-3-carboxamide]
